Results from PubChem BioAssay AID192 (DTP/NCI, 2004).
“And” between values parts separate entries of the source, which are not always exact repeats. Equal entries are not always repeated. Toxic doses and inconclusive results are not listed.

System: BDF1 mice, B16 melanoma ip, median survival T/C
Experiment: NCI In Vivo Anticancer Drug Screen. Data for tumor model B16 Melanoma (intraperitoneal) in B6D2F1 (BDF1) mice
Settings: endpoint: median survival time, higher = longer survival
How it was run: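 Tumor-bearing mice received test compound or vehicle. Survival or tumor size was then measured in both groups. The treated-group figure was divided by the control-group figure.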

[1] = dose: 100.0 mg/kg/injection, schedule: Q01DX009 (ip), vehicle: saline with Tween-80
[2] = dose: 12.5 mg/kg/injection, schedule: Q01DX009 (ip), vehicle: saline
[3] = dose: 25.0 mg/kg/injection, schedule: Q01DX009 (ip), vehicle: saline
[4] = dose: 50.0 mg/kg/injection, schedule: Q01DX009 (ip), vehicle: saline
[5] = dose: 100.0 mg/kg/injection, schedule: Q01DX009 (ip), vehicle: saline

## CC1CC(C)OS(=O)O1 (stereo unspecified)
dose: 12.5 mg/kg/injection, schedule: Q01DX009 (ip), vehicle: saline sonified
  T/C: 108 % of control
dose: 25.0 mg/kg/injection, schedule: Q01DX009 (ip), vehicle: saline sonified
  T/C: 100 % of control
dose: 50.0 mg/kg/injection, schedule: Q01DX009 (ip), vehicle: saline sonified
  T/C: 100 % of control

## C=C1CCN(c2ccccc2Cl)C1=O
dose: 4.0 mg/kg/injection, schedule: Q01DX009 (ip), vehicle: saline + alcohol
  T/C: 104 % of control
dose: 8.0 mg/kg/injection, schedule: Q01DX009 (ip), vehicle: saline + alcohol
  T/C: 98 % of control
dose: 16.0 mg/kg/injection, schedule: Q01DX009 (ip), vehicle: saline + alcohol
  T/C: 101 % of control
dose: 32.0 mg/kg/injection, schedule: Q01DX009 (ip), vehicle: saline + alcohol
  T/C: 121 % of control

## COC(COC(N)=O)C1=C(N2CC2)C(=O)C(C)=C(N2CC2)C1=O (stereo unspecified)
dose: 0.03 mg/kg/injection, schedule: Q01DX009 (ip), vehicle: saline
  T/C: 93 % of control and 107 % of control and 122 % of control
dose: 0.06 mg/kg/injection, schedule: Q01DX009 (ip), vehicle: saline
  T/C: 101 % of control and 114 % of control
dose: 0.12 mg/kg/injection, schedule: Q01DX009 (ip), vehicle: saline
  T/C: 123 % of control
dose: 0.25 mg/kg/injection, schedule: Q01DX009 (ip), vehicle: saline
  T/C: 163 % of control
dose: 0.5 mg/kg/injection, schedule: Q01DX009 (ip), vehicle: saline
  T/C: 179 % of control and 196 % of control

## O=[N+]([O-])c1ccc(/C=C/c2ccccc2)c([N+](=O)[O-])c1
dose: 100.0 mg/kg/injection, schedule: Q04DX003 (ip), vehicle: Klucel (hydroxypropylcellulose) (HPC)
  T/C: 97 % of control
dose: 200.0 mg/kg/injection, schedule: Q04DX003 (ip), vehicle: Klucel (hydroxypropylcellulose) (HPC)
  T/C: 96 % of control
dose: 400.0 mg/kg/injection, schedule: Q04DX003 (ip), vehicle: Klucel (hydroxypropylcellulose) (HPC)
  T/C: 97 % of control

## CC(=O)Nc1ccc(C)c(Cl)c1
[1]
  T/C: 111 % of control
dose: 200.0 mg/kg/injection, schedule: Q01DX009 (ip), vehicle: saline with Tween-80
  T/C: 90 % of control

## CCOC(=O)c1c[nH]c2oc(/C=N/N3CC(CN4CCOCC4)OC3=O)cc2c1=O (stereo unspecified)
[2]
  T/C: 95 % of control
[3]
  T/C: 98 % of control
[4]
  T/C: 97 % of control
[5]
  T/C: 105 % of control

## C1OC1CO[C@@H]1CO[C@H]2[C@@H]1OC[C@H]2OCC1CO1 (stereo partly specified)
[2]
  T/C: 94 % of control
[3]
  T/C: 94 % of control
dose: 50.0 mg/kg/injection, schedule: Q01DX009 (ip), vehicle: saline with Tween-80
  T/C: 87 % of control
[4]
  T/C: 115 % of control
[1]
  T/C: 97 % of control
[5]
  T/C: 104 % of control
dose: 100.0 mg/kg/injection, schedule: Q04DX003 (ip), vehicle: saline with Tween-80
  T/C: 116 % of control
dose: 200.0 mg/kg/injection, schedule: Q01DX009 (ip), vehicle: saline
  T/C: 326 % of control
dose: 266.0 mg/kg/injection, schedule: Q04DX003 (ip), vehicle: saline with Tween-80
  T/C: 104 % of control
dose: 400.0 mg/kg/injection, schedule: Q01DX009 (ip), vehicle: saline
  T/C: 327 % of control
dose: 600.0 mg/kg/injection, schedule: Q04DX003 (ip), vehicle: saline with Tween-80
  T/C: 109 % of control

## COc1cc(Cl)ccc1C
dose: 37.5 mg/kg/injection, schedule: Q01DX001 (ip), vehicle: Klucel (hydroxypropylcellulose) (HPC)
  T/C: 103 % of control
dose: 75.0 mg/kg/injection, schedule: Q01DX001 (ip), vehicle: Klucel (hydroxypropylcellulose) (HPC)
  T/C: 182 % of control
dose: 150.0 mg/kg/injection, schedule: Q01DX001 (ip), vehicle: Klucel (hydroxypropylcellulose) (HPC)
  T/C: 116 % of control
dose: 300.0 mg/kg/injection, schedule: Q01DX001 (ip), vehicle: Klucel (hydroxypropylcellulose) (HPC)
  T/C: 100 % of control
